In US12134594B2, “Composition and application thereof as antitumor drug” (Guangdong Jianersheng Pharmaceutical Technology Co., Ltd., priority 2018, dated 2024):

Assays:
[1] = metal and platinum amount in kidney by ICP-MS; assay type: in vivo, mouse
Protocol: The control group was intraperitoneally (i.p.) administrated with 0.9% normal saline. […] All mice were treated for 3 weeks. The kidney was sliced, weighed and dissolved in 70% HNO3; blood plasma was diluted with 70% HNO3. The sample was heated by a 100° C. hot block until thoroughly evaporated. All solid residues were re-dissolved in 5 mL of 2% HNO3. Platinum was quantified by inductively coupled plasma mass spectrometry (ICP-MS).

[2] = tested on: HK2 cells; assay: platinum content in HK2 cells by ICP-MS; assay type: cell-based, human
Protocol: The amount of platinum in the cells was determined by an IPC-MS assay.
Platinum concentration was 8.33 ng/10^6 cells. […] Platinum concentration in the HK2 cells dropped by 38.0% to 5.16 ng/10^6 cells as a result.

[3] = blood BUN and creatinine (kidney injury markers) in 4T1 mouse model; assay type: in vivo; conditions: 3 weeks
Protocol: The control group was intraperitoneally (i.p.) administrated with 0.9% normal saline. […] All mice were treated for 3 weeks.
An EDTA tube was used to collect whole blood for a complete blood count (CBC) test. Plasma was collected by centrifugation blood collected in a heparin-coated tube. The plasma was used to carry out tests and analyses including CBC and a blood chemical test; plasma BUN and creatinine level were markers of kidney injury.
A 4T1 breast cancer mouse model was used to evaluate the antitumor ability and protective effect of the novel compound. […] When the novel compound was used for intervention, BUN level dropped by 46% to 47.6 mg/dl.

[4] = kidney histopathology (HE) in 4T1 mouse model; assay type: in vivo; conditions: 3 weeks
Protocol: The control group was intraperitoneally (i.p.) administrated with 0.9% normal saline. […] All mice were treated for 3 weeks. Histopathological examination of mouse tissues: histopathological changes of the kidney were examined by a 4 μm-thick deparaffinized section stained with hematoxylin and eosin (HE). To evaluate tubular damages, dilation, necrosis, apoptosis, and cast formation of renal tubules were assessed via 10 different fields of view (Zeiss Axio imager electrofluorescence microscope) at the cortical medullary junction of the kidney.

[5] = tested on: mice; assay: acute oral lethal dose (LD50) in mice; assay type: in vivo, mouse
Excerpt: (§1) According to the technical solutions provided by the present disclosure, the disclosure has the following beneficial effects: • 1. The novel compound in the composition has a high chelating effect on the platinum-based antitumor compound and toxic heavy metals. […] For example, in a test performed in a mouse model with 4T1 breast carcinoma xenografts, the composition combined treatment could better delay tumor growth and inhibit metastasis than administrating the platinum-based antitumor compound alone. • 4. […] Co-treatment using the composition could greatly reduce systemic toxicity in mice and reduce weight loss caused by administrating the platinum-based antitumor compound alone.

[6] = tested on: HK2 cells; assay: in vitro MTT cell viability assay, HK2 cells; assay type: cell-based, human
Protocol: (§2) The cells involved in this example include a human renal proximal tubular cell line HK2 ([…]2190), a pig proximal tubular cell line LLC-PK1 ([…] 101) and a mouse breast cancer cell line 4[…]2539), which were all purchased from American Type Culture Collection. LLC-PK1 cells were cultured in Dulbecco modified Eagle's medium (DMEM), HK2 cells were cultured in DMEM/F12 medium, and 4T1 cells were cultured in RPMI 1640 medium. All cell media were supplemented with 10% FBS, 100 units/ml penicillin and 100 […]. The cell lines were incubated at 37° C. in a 5% CO2 atmosphere and subcultured twice a week. 3.2 In vitro cell viability assay The HK2 cells and the LLC-PK1 cells were treated with trypsin and inoculated in a 100 μL medium in a 96-well plate at a density of 10,000 cells/well. The cells were incubated for 24 h before treatment. To examine the toxicity of the novel compound, the cells were treated with different doses of the novel compound for 24 h. […] The medium was then changed, and the cells were treated with different doses of the novel compound for 48 h. After treatment, cell viability was measured by an MTT assay. 10 μL of a 12 mM MTT (3-(4,5-dimethylthiazol-2-yl)-2,5-diphenyltetrazolium bromide) stock solution was added into each well. After incubation for 4 h at 37° C., the medium was removed; 100 μL of dimethyl sulfoxide (DMSO) was added into each well, and then the plate was incubated for 10 min at 37° C. The plate was shaken in a plate oscillator, and a plate reader (Bio-Tek) was used to measure the absorbance at 570 nm.

[7] = tested on: LLC-PK1 cells; assay: in vitro MTT cell viability assay, LLC-PK1 cells; assay type: cell-based, pig
Protocol: as §2

[8] = tested on: rats; assay: acute oral lethal dose (LD50) in rats; assay type: in vivo, rat
Excerpt: as §1

[9] = after administration of cisplatin and GMDTC

N.N.[Cl][Pt][Cl] [cisplatin]
Amount in kidney: 27Al [1, 9]: 3.93 µg/g
Amount in kidney: 55Mn [1, 9]: 0.92 µg/g
Amount in kidney: 65Cu [1, 9]: 4.13 µg/g
Amount in kidney: 66Zn [1, 9]: 24.4 µg/g
Amount in kidney: 195Pt [1, 9]: 9.841 µg/g
platinum concentration in HK2 cells ([2]; 50 μM cisplatin, 24 h): 202.6 ng/10^6 cells
platinum concentration in HK2 cells ([2]; cisplatin (300 μM) exposure 30 min, removed, cultured 48 h): 8.33 ng/10^6 cells
average BUN level ([3]; mice, 5 mg/kg cisplatin i.p. twice a week): 87.9 mg/dL
kidney histopathology ([4]; mice treated with 5 mg/kg cisplatin twice a week, 5 mg/kg): extensive necrosis and degeneration
kidney histopathology ([4]; mice treated with 5 mg/kg cisplatin twice a week, listed as Cisplatin, 5 mg/kg): extensive necrosis and degeneration of tubule cells

CSCC[C@@H](C(=O)[O-])N(C[C@H](O)[C@@H](O)[C@H](O)[C@H](O)CO)C(=S)[S-].[Na+].[Na+] [GMDTC, sodium (S)-2-(dithiocarboxylate ((2S,3R,4R,5R)-2,3,4,5,6-pentahydroxyhexyl)amino)-4-(methylthio)butyrate]
effect on amount and distribution of normal (essential) metals in the body ([1]; mice, ICP-MS, compared with control mice (Table 1 and Table 2)): does not affect
acute oral lethal dose (LD50) [5]: greater than 10,000 mg/kg
impact on viability of HK2 cells compared with blank control ([6]; 1000 μM, 24 h, MTT): not significantly
cell viability ([6]; HK2 cells pretreated with 300 μM cisplatin 30 min, then GMDTC for 48 h (FIG. 4)): 60 % of that of the control group
cell viability ([6]; HK2 cells, 50 μM cisplatin + increasing doses of novel compound, 24 h (FIG. 3A)): 80%
IC50 ([6]; HK2 cells, 24 h, MTT, read-out: IC50 (toxicity, cell viability)): ~8 mM
impact on viability of LLC-PK1 cells compared with blank control ([7]; 400 μM, 24 h, MTT): not significantly
cytotoxicity on co-treatment ([7]; LLC-PK1 cells, 50 μM cisplatin + novel compound, 24 h (FIG. 3B)): reduce cytotoxicity
IC50 ([7]; LLC-PK1 cells, 24 h, MTT, read-out: IC50 (toxicity, cell viability)): ~8 mM
drop of platinum concentration in HK2 cells ([2]; 50 μM cisplatin + 1000 μM novel compound vs cisplatin alone): 91.5%
platinum concentration in HK2 cells ([2]; 50 μM cisplatin co-administrated with 1000 μM novel compound, 24 h): 17.2 ng/10^6 cells
platinum concentration in HK2 cells ([2]; cisplatin exposure 30 min, then 1000 μM novel compound intervention, 48 h): 5.16 ng/10^6 cells
drop of platinum concentration in HK2 cells ([2]; rescue with 1000 μM novel compound after 30 min cisplatin vs no rescue): 38.0%
acute oral lethal dose (LD50) [8]: greater than 10,000 mg/kg
drop of BUN level ([3]; cisplatin + 500 mg/kg novel compound vs cisplatin alone): 46%
BUN level ([3]; mice, 5 mg/kg cisplatin twice a week + 500 mg/kg novel compound 2 h after cisplatin): 47.6 mg/dL
kidney histopathology ([4]; mice co-treated with cisplatin and 500 mg/kg novel compound, compared with control group): no significant difference
